Results on ten compounds are retold here after EP3057950B1, “PHENYL LINKED QUINOLINYL MODULATORS OF ROR-GAMMA-T” (Janssen Pharmaceutica NV, priority 2013, dated 2015).

The term IC50 denotes the concentration at which inhibition is half-maximal. One may read the Kd as the concentration at which binding is half-saturated. As usually defined, the inhibition is the change of the read-out against control, counted positive when it falls.

Experiment [1] addresses T1, wild type human RORγt LBD (Homo sapiens, UniProt P51449).
T1 construct: expressed in transfected cells; host or cells: HEK293T
T1 sequence (P51449 269-508 limits assumed): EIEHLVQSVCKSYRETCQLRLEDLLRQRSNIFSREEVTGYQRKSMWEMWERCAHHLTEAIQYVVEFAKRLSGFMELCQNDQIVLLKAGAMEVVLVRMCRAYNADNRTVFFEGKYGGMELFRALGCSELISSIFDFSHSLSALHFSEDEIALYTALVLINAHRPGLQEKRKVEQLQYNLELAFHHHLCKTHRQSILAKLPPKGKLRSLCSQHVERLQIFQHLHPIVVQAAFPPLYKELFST
The experiment in a line: RORγt Reporter Assay (GAL4-RORγt LBD luciferase in HEK293T cells). To be noted: HEK293T cells; for IC50: compounds for 24 hours, read-out: RORγt reporter Assay, IC50; for inhibition at 6 µM: HEK-293T, read-out: RORγt reporter Assay, % inhibition @ 6 µM, @ 6 µM. It counts as cell-based. The method in brief: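 HEK293T cells transiently co-transfected with GAL4-DBD–human RORγt LBD (or AF2 mutant) and GAL4-responsive firefly luciferase reporter; renilla luciferase normalised transfection and viability. Compounds applied 24 h in 5% lipid-reduced FCS; firefly/renilla ratio plotted against concentration.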
For orientation: Reporter assays use an easily measured gene product as a stand-in for the process of interest.

Experiment [2] addresses T2, wild type human RORγt ligand binding domain (RORγt LBD) (Homo sapiens, UniProt P51449).
T2 construct: His-tag (N); TurboTEV protease cleavage site (ENLYFQG) (N); made in house; host or cells: E. coli (pHIS1, modified pET expression vector)
T2 sequence (P51449 269-508 limits assumed): T1 sequence (P51449 269-508 limits assumed)
The experiment in a line: RORγt ThermoFluor® Assay (thermal shift, binding affinity). To be noted: pH 7.0, estimated from concentration response curves. In a few lines:
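Thermal shift assay on 0.065 mg/mL RORγt LBD with 60 µM 1,8-ANS in 100 mM Hepes pH 7.0, 10 mM NaCl, 2.5 mM GSH, 0.002% Tween-20. Heated at 1 °C/min, fluorescence read at 500 nm.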

In experiment [3] the test system is IL-17 production by CD4 T cells. As to the kind of experiment: Human Th17 Assay (IL-17 production by CD4 T cells under Th17 differentiation conditions). Format: cell-based. Particulars: 3 days, IL-17 in supernatant. How it is done:
The human Th17 assay tests the effect of RORγt modulatory compounds on IL-17 production by CD4 T cells under conditions which favor Th17 differentiation. Total CD4^+ T cells were isolated from the peripheral blood mononuclear cells (PBMC) of healthy donors using a CD4^+ T cell isolation kit II, following the manufacturer's instructions (Miltenyi Biotec). […] 50 µL of compound at titrated concentrations in DMSO were added into each well at final DMSO concentration at 0.2%. Cells were incubated for 1 hour, then 50 µL of Th17 cell differentiation medium was added to each well. The final concentrations of antibodies and cytokines (R&D Systems) in differentiation medium were: 3x10^6/mL anti-CD3/CD28 beads (prepared using human T cell activation/expansion kit, Miltenyi Biotec), 10 µg/mL anti-IL4, 10 µg/mL anti-IFNγ, 10 ng/mL […], 10 ng/mL IL23, 50 ng/mL IL6, 3 ng/mL TGFβ and 20 U/mL IL2. Cells were cultured at 37 °C and 5% CO2 for 3 days. Supernatants were collected and the accumulated IL-17 in culture was measured by using MULTI-SPOT® Cytokine Plate following manufacture's instruction (Meso Scale Discovery). The plate was read using Sector Imager 6000, and IL-17 concentration was extrapolated from the standard curve. The IC50s were determined by GraphPad.

Turning to `COc1nc2ccc(C(O)(c3cncn3C)C3CCN(C(C)=O)CC3)cc2c(C#N)c1-c1cccc(C(F)(F)F)c1` (single isomer, unassigned) [Example 2c, 6-((1-Acetylpiperidin-4-yl)(hydroxy)(1-methyl-1H-imidazol-5-yl)methyl)-2-methoxy-3-(3-(trifluoromethyl)phenyl)quinoline-4-carbonitrile], in experiment [1], the “RORγt reporter Assay, % inhibition @ 6 µM” value is listed as 95% and the IC50 is 170 nM. The dissociation constant (Kd) in experiment [2] is 140 nM. This compound also registered an IC50 in experiment [3] of 670 nM.
In the case of `COc1nc2ccc(C(O)(c3cncn3C)c3cnnn3C)cc2c(C#N)c1-c1cccc(C(F)(F)F)c1` (single isomer, unassigned) [Example 4c, 6-(Hydroxy(1-methyl-1H-1,2,3-triazol-5-yl)(1-methyl-1H-imidazol-5-yl)methyl)-2-methoxy-3-(3-(trifluoromethyl)phenyl)quinoline-4-carbonitrile], in experiment [1], the “RORγt reporter Assay, % inhibition @ 6 µM” value is recorded as 98% and the IC50 was 11 nM. The Kd in experiment [2] is 1.4 nM. In addition, the IC50 in experiment [3] worked out at 31 nM.
`OC(c1ccccc1)(c1ccncc1)c1ccc2nc(Cl)c(-c3ccccc3Cl)c(Cl)c2c1` (stereo not shown) [Example 73, (2,4-Dichloro-3-(2-chlorophenyl)quinolin-6-yl)(phenyl)(pyridin-4-yl)methanol]: in experiment [1], the IC50 was determined as 700 nM and the inhibition at 6 µM was 80%. The Kd in experiment [2] was 20000 nM. In addition, the IC50 in experiment [3] (Homo sapiens, CD4+ T, 72 h) was roughly 6000 nM.
Regarding `COc1nc2ccc(C(O)(c3cncn3C)c3cnnn3C)cc2c(C#N)c1-c1cccc(C(F)(F)F)c1` (single isomer, unassigned) [Example 4b, 6-(Hydroxy(1-methyl-1H-1,2,3-triazol-5-yl)(1-methyl-1H-imidazol-5-yl)methyl)-2-methoxy-3-(3-(trifluoromethyl)phenyl)quinoline-4-carbonitrile], in experiment [1], the IC50 was determined as 9.5 nM and the inhibition at 6 µM stood at 98%. Moreover, the Kd in experiment [2] was 4.4 nM. The compound also gave an IC50 in experiment [3] (Homo sapiens, CD4+ T, 72 h) of 61 nM.
In the case of `COc1nc2ccc(C(O)(c3cncn3C)C3CCN(C(C)=O)CC3)cc2c(C#N)c1-c1cccc(C(F)(F)F)c1` (single isomer, unassigned) [Example 2b, 6-((1-Acetylpiperidin-4-yl)(hydroxy)(1-methyl-1H-imidazol-5-yl)methyl)-2-methoxy-3-(3-(trifluoromethyl)phenyl)quinoline-4-carbonitrile], the IC50 in experiment [1] amounted to 200 nM; in experiment [3] it was 2900 nM. In experiment [1], the inhibition at 6 µM amounted to 91%. In experiment [2], the Kd is 130 nM.
`COc1c(-c2ccccc2)c(C(F)(F)F)nc2ccc(C(O)(c3ccc(Cl)cc3)c3cncn3C)cc12` (single isomer, unassigned) [Example 33c, (4-Chlorophenyl)(4-methoxy-3-phenyl-2-(trifluoromethyl)quinolin-6-yl)(1-methyl-1H-imidazol-5-yl)methanol]: in experiment [1], the “RORγt reporter Assay, % inhibition @ 6 µM” value worked out at 99% and the 50% inhibitory concentration (IC50) was determined as 130 nM. The Kd in experiment [2] was 77 nM. For the same compound, the IC50 in experiment [3] (Homo sapiens, CD4+ T, 72 h) turned out to be 290 nM.
For the compound `Cc1cc(C(O)(c2ccc(C(F)(F)F)nc2)c2cncn2C)cc2c(C#N)c(-c3ccccc3)c(C#N)nc12` (single isomer, unassigned) [Example 25c, 6-(Hydroxy(1-methyl-1H-imidazol-5-yl)(6-(trifluoromethyl)pyridin-3-yl)methyl)-8-methyl-3-phenylquinoline-2,4-dicarbonitrile], in experiment [1], the “RORγt reporter Assay, % inhibition @ 6 µM” value was 95% and the 50% inhibitory concentration (IC50) worked out at 160 nM. Also, in experiment [2], the Kd is 61 nM. For the same compound, in experiment [3] (Homo sapiens, CD4+ T, 72 h), the half-inhibitory concentration (IC50) turned out to be 160 nM.
With `Cc1nc(C)c(C(O)(c2ccc3nc(C#N)c(-c4ccccc4)c(C#N)c3c2)c2cnnn2C)s1` (single isomer, unassigned) [Example 47c, 6-((2,4-Dimethylthiazol-5-yl)(hydroxy)(1-methyl-1H-1,2,3-triazol-5-yl)methyl)-3-phenylquinoline-2,4-dicarbonitrile], in experiment [1], the “RORγt reporter Assay, % inhibition @ 6 µM” value is 100% and the IC50 was determined as 25 nM. Moreover, in experiment [2], the Kd was 1.9 nM. In experiment [3] (Homo sapiens, CD4+ T, 72 h), this compound yielded an IC50 of 54 nM.
In the case of `COc1nc2ccc(C(O)(c3cncn3C)c3cnnn3C)cc2c(Cl)c1-c1cccc(C(F)(F)F)c1` (single isomer, unassigned) [Example 3b, (4-Chloro-2-methoxy-3-(3-(trifluoromethyl)phenyl)quinolin-6-yl)(1-methyl-1H-1,2,3-triazol-5-yl)(1-methyl-1H-imidazol-5-yl)methanol], in experiment [1], the IC50 was determined as 3 nM and the inhibition at 6 µM is 96%. Also, in experiment [2], the Kd was 0.56 nM. Also, the IC50 in experiment [3] was found to be 13 nM.
For `COc1nc2ccc(C(O)(c3ccc(C(F)(F)F)nc3)c3cncn3C)cc2c(Cl)c1-c1ccc(Cl)s1` (single isomer, unassigned) [Example 14c, [4-Chloro-3-(5-chlorothiophen-2-yl)-2-methoxyquinolin-6-yl](1-methyl-1H-imidazol-5-yl)[6-(trifluoromethyl)pyridin-3-yl]methanol], the “RORγt reporter Assay, % inhibition @ 6 µM” value in experiment [1] came to 87%. Further, the IC50 in experiment [1] stood at 510 nM; in experiment [3] it was 310 nM. The Kd in experiment [2] is 140 nM.
